PubChem BioAssay (NCI)
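The concentration for 50% growth inhibition is given as GI50. TGI denotes the concentration required for complete inhibition of growth.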

Tests used:
Experiment in all cases: NCI anticancer screen, dose series, 384-well format
HOP-62 NSCLC = system: HOP-62 NSCLC
HS 578T breast = system: HS 578T breast
SW-620 colon = system: SW-620 colon
SF-539 CNS = system: SF-539 CNS
786-0 renal = system: 786-0 renal
LOX IMVI melanoma = system: LOX IMVI melanoma
NCI-H460 NSCLC = system: NCI-H460 NSCLC
MOLT-4 leukemia = system: MOLT-4 leukemia
HCT-116 colon = system: HCT-116 colon
A549 NSCLC = system: A549 NSCLC
NCI-H322M lung = system: NCI-H322M lung
HCT-15 colon = system: HCT-15 colon
HCC-2998 colon = system: HCC-2998 colon

**Q.** Which GI50 (HOP-62 NSCLC) does the source give for `CNCc1ccc(C)c(NC(=O)c2ccc(Nc3nc(-c4ccccc4)c4ccccc4n3)cc2)c1` here?
**A.** Its GI50 is 1.91 µM.

**Q.** What about the TGI (HOP-62 NSCLC) of the same compound?
**A.** The TGI was 3.33 µM.

**Q.** And the GI50 (HS 578T breast)?
**A.** The GI50 was 1.93 µM.

**Q.** And the TGI (HS 578T breast)?
**A.** The TGI was 3.34 µM.

**Q.** What about the GI50 (SW-620 colon) of the same compound?
**A.** The GI50 was 1.85 µM.

**Q.** What about the TGI (SW-620 colon) of the same compound?
**A.** Its TGI is 3.28 µM.

**Q.** And the GI50 (SF-539 CNS)?
**A.** The GI50 was 1.71 µM.

**Q.** What about the TGI (SF-539 CNS) of the same compound?
**A.** The TGI was 3.1 µM.

**Q.** What about the GI50 (786-0 renal) of the same compound?
**A.** The GI50 was 1.5 µM.

**Q.** What about the TGI (786-0 renal) of the same compound?
**A.** Its TGI is 2.84 µM.

**Q.** And the GI50 (LOX IMVI melanoma)?
**A.** The GI50 was 1.55 µM.

**Q.** And the TGI (LOX IMVI melanoma)?
**A.** Its TGI is 2.91 µM.

**Q.** What about the GI50 (NCI-H460 NSCLC) of the same compound?
**A.** The GI50 was 1.36 µM.

**Q.** What about the TGI (NCI-H460 NSCLC) of the same compound?
**A.** The TGI was 2.71 µM.

**Q.** What about the GI50 (MOLT-4 leukemia) of the same compound?
**A.** The GI50 was 1.51 µM.

**Q.** What about the TGI (MOLT-4 leukemia) of the same compound?
**A.** The TGI was 2.85 µM.

**Q.** What about the GI50 (HCT-116 colon) of the same compound?
**A.** The GI50 was 1.73 µM.

**Q.** What about the TGI (HCT-116 colon) of the same compound?
**A.** Its TGI is 3.16 µM.

**Q.** What about the GI50 (A549 NSCLC) of the same compound?
**A.** Its GI50 is 1.8 µM.

**Q.** And the TGI (A549 NSCLC)?
**A.** Its TGI is 3.24 µM.

**Q.** What about the GI50 (NCI-H322M lung) of the same compound?
**A.** Its GI50 is 1.74 µM.

**Q.** And the TGI (NCI-H322M lung)?
**A.** Its TGI is 3.14 µM.

**Q.** What about the GI50 (HCT-15 colon) of the same compound?
**A.** The GI50 was 1.05 µM.

**Q.** What about the TGI (HCT-15 colon) of the same compound?
**A.** Its TGI is 2.39 µM.

**Q.** What about the GI50 (HCC-2998 colon) of the same compound?
**A.** Its GI50 is 1.28 µM.

**Q.** And the TGI (HCC-2998 colon)?
**A.** Its TGI is 2.55 µM.
